Test results: US20240099997A1, “METALLOENZYME MODULATORS” (Regents of the University of Minnesota, priority 2022, published 2024)

Target: T1, horse heart myoglobin (Mb) (Equus caballus, UniProt P68082)
T1 construct: Lyophilized horse heart Mb, human Hb, equine heart cytochrome c were in their ferric form when dissolved in buffer; purchased Sigma M1882; host or cells: horse heart
Test: UV-Vis spectrophotometric ligand affinity study, myoglobin
Conditions: ferric horse heart Mb, PBS pH 7.4, Soret shift 409 to 422 nm; read-out: Kd (binding affinity to ferric Mb heme)
Procedure: UV-Vis spectrophotometric ligand affinity studies for ferric and ferrous-oxy heme proteins were performed using a Cary4000 UV-Vis spectrophotometer. These studies were performed in an aerobic environment. Lyophilized horse heart Mb, human Hb, equine heart cytochrome c were in their ferric form when dissolved in buffer. DosS GAF-A was purified in its ferric form. Ferrous-oxy forms of Mb and hemoglobin (Hb) were prepared by addition of a small aliquot of sodium dithionite to the proteins (in air) and running the protein through PD-10 columns twice to remove excess dithionite/other products. […] The protein concentration was set to ˜1 μM to obtain a desirable absorbance reading at the Soret peak region. […] For those fragments with some intrinsic absorbance in the aforementioned region, a second titration was performed with the same conditions, but without protein. […]
UV-Vis spectrophotometric ligand affinity studies for ferrous heme proteins were performed using a Cary 60 UV-Vis spectrophotometer. […] The sum of the maximal and minimal differences in absorbance was plotted for each concentration point for each ligand. […]
where Y is the observed change in absorbance, A is the maximum change in absorbance, Kd is the dissociation constant of the ligand, L is the ligand concentration and P is the protein concentration. The maximal change in absorbance, A, is obtained through nonlinear regression. […]

T1 sequence (P68082 whole entry): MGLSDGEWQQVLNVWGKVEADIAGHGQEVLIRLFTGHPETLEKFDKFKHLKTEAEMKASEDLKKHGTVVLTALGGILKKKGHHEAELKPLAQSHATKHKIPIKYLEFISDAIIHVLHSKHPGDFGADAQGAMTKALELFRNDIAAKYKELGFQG

## N#CN1CCSCC1 [HT-N1, thiomorpholine N-carbonitrile]
  Kd: 2570 ± 328 µM
